Results on three substances are retold here after US20210000981A1, “CONJUGATED POLYCATIONIC POLYMERS, METHODS OF USING THE SAME AND METHODS OF TREATING AUTOIMMUNE DISEASES, INFECTIOUS DISEASES AND ACUTE RADIATION EXPOSURE” (Duke University, priority 2015, published 2021).

In data set [1] the test system is NZBW F1 mice. Conditions: mouse, in vivo.
Data set [2] has as its system DNA in plasmid form. The experiment in a line: Plasmid DNA binding and LMWH displacement, agarose gel. Conditions: 60° C. with agitation. How it is done: Using the biotinylated form of the polymer we have established a protocol to displace the DAMPs that are bound to the polymer using low-molecular weight heparin (LMWH). This method was validated by electrophoretic mobility shift assay (EMSA) and TLR stimulation.
(§1) DNA in plasmid form was bound to PAMAM-G3 via co-incubation at room temperature. […] LMWH displacement was executed at 60° C. with agitation of the DNA-polymer complex.

Data set [3] deals with TLR. The experiment in a line: TLR reporter cell assays with DNA-polymer complex and LMWH. It counts as cell-based. As for the experimental part:
as §1

Data set [4] has as its system NA-sensing TLRs (TLR3, 7, 8 and 9). Briefly: Inhibition of nucleic acid based TLR agonists by NASs. Conditions: in vitro and in vivo.

As to “[NH2(CH2)2NH2]:(G=3); dendri PAMAM(NH2)32 [PAMAM-G3]”, the “maximum tolerated dose (MTD)” value in data set [1] lay within 100 to 200 mg/kg.
As to low-molecular weight heparin [LMWH], the “displacement of DNA from DNA-polymer complex” value in data set [2] is “Displacement of the DNA was also verified”. In data set [3], the “TLR activation after displacement of DNA from polymer” value is recorded as “elevated TLR activation” and the “TLR activation, alone” value is listed as “no activation alone”.
In the case of protamine sulfate, the “activities of nucleic acid based TLR agonists (CpG oligos, Poly I:C, ssRNA40/LyoVec)” value in data set [4] is “counteract the activities of multiple nucleic acid based TLR agonists in vitro and in vivo”.
